Data: the NIST ThermoML archive (doi:10.1021/je3003578)
Numbers after ± are expanded uncertainties.

How the values were obtained:
[1] = 101 kPa, Liquid
[2] = xn = mol fraction of the nth substance listed; settings: 283.15 K; 101 kPa; Liquid; x2 = 0

Structure (SMILES) | mass density ([1]; 283.15 K) [kg/m3] | mass density ([1]; 288.15 K) [kg/m3] | mass density ([1]; 293.15 K) [kg/m3] | mass density ([1]; 298.15 K) [kg/m3] | mass density ([1]; 303.15 K) [kg/m3] | mass density [2] [kg/m3]
CCOCCCN [3-ethoxy-1-propanamine] | 865.36 ± 0.82 | 860.63 ± 0.83 | 855.715 ± 0.84 | 851.018 ± 0.86 | 846.075 ± 0.87 | –
O [water] + CCOCCCN | – | – | – | – | – | 999.699 ± 0.3
